Laboratory results from ChEMBL document CHEMBL3885861, “Open TG-GATES”.

Species: Rattus norvegicus
Experiment: Open TG-GATES - Regimen: Daily Repeat
Assay type: toxicity, organism-based, Sprague-Dawley
Set-up: regimen Daily Repeat, gender Male, age 6 weeks
Conditions: in vivo, po, 2 mg/kg, route gavage, dose level Low; for APTT / Bas / Eos / Fbg / Hb / Lym / MCH / MCHC / MCV / Mono / Neu / PT / Plat / RBC / Ret / WBC: tissue Blood; for KIDNEY_L / KIDNEY_R / KIDNEY_TOTAL: tissue Kidney; for LIVER: tissue Liver; for ALP / ALT / AST / BUN / CRE / Ca / Cl / DBIL / GLC / IP / K / LDH / Na / PL / RALB / TBIL / TC / TG / TP / gamma-GTP: tissue Plasma

SMILES: OCCN1CCN(CCCN2c3ccccc3Sc3ccc(C(F)(F)F)cc32)CC1 [FLUPHENAZINE]
- TERMINAL_BW (72 h, time 3 day): 226 g
- APTT (72 h, time 3 day): 16.5 s
- Bas (72 h, time 3 day): 0%
- Eos (72 h, time 3 day): 1%
- Fbg (72 h, time 3 day): 221.4 mg/dL
- Hb (72 h, time 3 day): 13.7 g/dL
- Lym (72 h, time 3 day): 80%
- MCH (72 h, time 3 day): 22.3 pg
- MCHC (72 h, time 3 day): 33.6%
- MCV (72 h, time 3 day): 66.3 fL
- Mono (72 h, time 3 day): 6.8%
- Neu (72 h, time 3 day): 12.6%
- PT (72 h, time 3 day): 12.2 s
- Plat (72 h, time 3 day): 101.3 x10_4/uL
- RBC (72 h, time 3 day): 613 x10_4/ul
- Ret (72 h, time 3 day): 5.3%
- WBC (72 h, time 3 day): 100.9 x10_2/uL
- KIDNEY_L (72 h, time 3 day): 1 g
- KIDNEY_R (72 h, time 3 day): 1 g
- KIDNEY_TOTAL (72 h, time 3 day): 2 g
- LIVER (72 h, time 3 day): 11.4 g
- ALP (72 h, time 3 day): 869.2 IU/L
- ALT (72 h, time 3 day): 36 IU/L
- AST (72 h, time 3 day): 69.6 IU/L
- BUN (72 h, time 3 day): 20.4 mg/dL
- CRE (72 h, time 3 day): 0.5 mg/dL
- Ca (72 h, time 3 day): 11 mg/dL
- Cl (72 h, time 3 day): 104.6 meq/L
- DBIL (72 h, time 3 day): 0.008 mg/dL
- GLC (72 h, time 3 day): 194.6 mg/dL
- IP (72 h, time 3 day): 8.5 mg/dL
- K (72 h, time 3 day): 4.8 meq/L
- LDH (72 h, time 3 day): 156.6 IU/L
- Na (72 h, time 3 day): 137.6 meq/L
- PL (72 h, time 3 day): 172.8 mg/dL
- RALB (72 h, time 3 day): 4.1 g/dL
- TBIL (72 h, time 3 day): 0.3 mg/dL
- TC (72 h, time 3 day): 85.2 mg/dL
- TG (72 h, time 3 day): 95 mg/dL
- TP (72 h, time 3 day): 5.9 g/dL
- gamma-GTP (72 h, time 3 day): 0.6 IU/L
- TERMINAL_BW ([…], time 7 day): 257.2 g
- TERMINAL_BW ([…], time 14 day): 299.4 g
- TERMINAL_BW ([…], time 28 day): 362.5 g
- APTT ([…], time 7 day): 16.8 s
- Bas ([…], time 7 day): 0%
- Eos ([…], time 7 day): 0.8%
- Fbg ([…], time 7 day): 219.6 mg/dL
- Hb ([…], time 7 day): 13.7 g/dL
- Lym ([…], time 7 day): 83%
- MCH ([…], time 7 day): 21 pg
- MCHC ([…], time 7 day): 33.6%
- MCV ([…], time 7 day): 62.5 fL
- Mono ([…], time 7 day): 3%
- Neu ([…], time 7 day): 13.2%
- PT ([…], time 7 day): 12.1 s
- Plat ([…], time 7 day): 103.7 x10_4/uL
- RBC ([…], time 7 day): 652.6 x10_4/ul
- Ret ([…], time 7 day): 4.5%
- WBC ([…], time 7 day): 106.2 x10_2/uL
- APTT ([…], time 14 day): 16.8 s
- Bas ([…], time 14 day): 0%
- Eos ([…], time 14 day): 0.4%
- Fbg ([…], time 14 day): 223.2 mg/dL
- Hb ([…], time 14 day): 14.3 g/dL
- Lym ([…], time 14 day): 83.2%
- MCH ([…], time 14 day): 20.6 pg
- MCHC ([…], time 14 day): 33.5%
- MCV ([…], time 14 day): 61.4 fL
- Mono ([…], time 14 day): 5.4%
- Neu ([…], time 14 day): 11%
- PT ([…], time 14 day): 11.9 s
- Plat ([…], time 14 day): 108 x10_4/uL
- RBC ([…], time 14 day): 696 x10_4/ul
- Ret ([…], time 14 day): 3%
- WBC ([…], time 14 day): 149.6 x10_2/uL
- APTT ([…], time 28 day): 17.2 s
- Bas ([…], time 28 day): 0%
- Eos ([…], time 28 day): 1%
- Fbg ([…], time 28 day): 211.6 mg/dL
- Hb ([…], time 28 day): 14.9 g/dL
- Lym ([…], time 28 day): 84%
- MCH ([…], time 28 day): 19.3 pg
- MCHC ([…], time 28 day): 33.4%
- MCV ([…], time 28 day): 57.7 fL
- Mono ([…], time 28 day): 3.6%
- Neu ([…], time 28 day): 11.8%
- PT ([…], time 28 day): 12.1 s
- Plat ([…], time 28 day): 95.6 x10_4/uL
- RBC ([…], time 28 day): 775.2 x10_4/ul
- Ret ([…], time 28 day): 2.4%
- WBC ([…], time 28 day): 160.4 x10_2/uL
- KIDNEY_L ([…], time 7 day): 1.1 g
- KIDNEY_R ([…], time 7 day): 1.1 g
- KIDNEY_TOTAL ([…], time 7 day): 2.2 g
- KIDNEY_L ([…], time 14 day): 1.2 g
- KIDNEY_R ([…], time 14 day): 1.1 g
- KIDNEY_TOTAL ([…], time 14 day): 2.3 g
- KIDNEY_L ([…], time 28 day): 1.3 g
- KIDNEY_R ([…], time 28 day): 1.3 g
- KIDNEY_TOTAL ([…], time 28 day): 2.6 g
- LIVER ([…], time 7 day): 12.4 g
- LIVER ([…], time 14 day): 13.5 g
- LIVER ([…], time 28 day): 15.3 g
- ALP ([…], time 7 day): 761.6 IU/L
- ALT ([…], time 7 day): 30.4 IU/L
- AST ([…], time 7 day): 60.4 IU/L
- BUN ([…], time 7 day): 18.8 mg/dL
- CRE ([…], time 7 day): 0.5 mg/dL
- Ca ([…], time 7 day): 10.4 mg/dL
- Cl ([…], time 7 day): 105.2 meq/L
- DBIL ([…], time 7 day): 0.004 mg/dL
- GLC ([…], time 7 day): 187.6 mg/dL
- IP ([…], time 7 day): 7.9 mg/dL
- K ([…], time 7 day): 4.7 meq/L
- LDH ([…], time 7 day): 83.6 IU/L
- Na ([…], time 7 day): 137.6 meq/L
- PL ([…], time 7 day): 157.6 mg/dL
- RALB ([…], time 7 day): 4 g/dL
- TBIL ([…], time 7 day): 0.3 mg/dL
- TC ([…], time 7 day): 74 mg/dL
- TG ([…], time 7 day): 146.6 mg/dL
- TP ([…], time 7 day): 5.9 g/dL
- gamma-GTP ([…], time 7 day): 1.4 IU/L
- ALP ([…], time 14 day): 728.4 IU/L
- ALT ([…], time 14 day): 28 IU/L
- AST ([…], time 14 day): 56.6 IU/L
- BUN ([…], time 14 day): 19.6 mg/dL
- CRE ([…], time 14 day): 0.6 mg/dL
- Ca ([…], time 14 day): 10.8 mg/dL
- Cl ([…], time 14 day): 103.4 meq/L
- DBIL ([…], time 14 day): 0 mg/dL
- GLC ([…], time 14 day): 179.4 mg/dL
- IP ([…], time 14 day): 7.7 mg/dL
- K ([…], time 14 day): 4.4 meq/L
- LDH ([…], time 14 day): 92.4 IU/L
- Na ([…], time 14 day): 135.2 meq/L
- PL ([…], time 14 day): 147.8 mg/dL
- RALB ([…], time 14 day): 4.1 g/dL
- TBIL ([…], time 14 day): 0.2 mg/dL
- TC ([…], time 14 day): 66.8 mg/dL
- TG ([…], time 14 day): 160.2 mg/dL
- TP ([…], time 14 day): 6 g/dL
- gamma-GTP ([…], time 14 day): 1 IU/L
- ALP ([…], time 28 day): 528.8 IU/L
- ALT ([…], time 28 day): 29.6 IU/L
- AST ([…], time 28 day): 59.6 IU/L
- BUN ([…], time 28 day): 19.8 mg/dL
- CRE ([…], time 28 day): 0.6 mg/dL
- Ca ([…], time 28 day): 10.5 mg/dL
- Cl ([…], time 28 day): 106.8 meq/L
- DBIL ([…], time 28 day): 0.002 mg/dL
- GLC ([…], time 28 day): 179.2 mg/dL
- IP ([…], time 28 day): 6.6 mg/dL
- K ([…], time 28 day): 4.4 meq/L
- LDH ([…], time 28 day): 79.6 IU/L
- Na ([…], time 28 day): 139.8 meq/L
- PL ([…], time 28 day): 151.4 mg/dL
- RALB ([…], time 28 day): 4.1 g/dL
- TBIL ([…], time 28 day): 0.2 mg/dL
- TC ([…], time 28 day): 73.2 mg/dL
- TG ([…], time 28 day): 131 mg/dL
- TP ([…], time 28 day): 6.3 g/dL
- gamma-GTP ([…], time 28 day): 2 IU/L
